Experimental data reported in publication PMC2533715, “Suppressive Effects of Selected Food Phytochemicals on CD74 Expression in NCI-N87 Gastric Carcinoma Cells” (Journal of Clinical Biochemistry and Nutrition, 2008).

What was measured:
NF-κB [1] = system: NF-κB; design: method as in PMID 15589482, PMID 16317159, PMID 9521814, PMID 17420607; conditions: several cell lines; cited from earlier work
Cell viability (MTT) = conditions: human
CD74 = test: Cell-based ELISA for constitutive CD74 expression; design: species or system human; conditions: 48 h, NCI-N87 cells; for IR (%) inhibition rate of CD74 expression: mean ± average deviation; for IC50: mean of duplicate experiments, unit printed in b25 only, read-out: IC50 (50% inhibitory concentration) for constitutive CD74 expression
[2] = system: H. pylori-infected human gastric mucosal cells; design: method as in PMID 17028789; conditions: cited from earlier work
NF-κB [3] = system: NF-κB; design: method as in PMID 12106602; conditions: MKN45 gastric carcinoma cells co-cultured with H. pylori; cited from earlier work
in vitro = conditions: human
[4] = NCI-N87 gastric carcinoma cells

Row | Structure (SMILES) | NF-κB inhibition (NF-κB [1]) | CC50 at 48 h (Cell viability (MTT)) [µM] | viability at 48 h, 4 µM (Cell viability (MTT); [4]) [%] | viability at 48 h, 20 µM (Cell viability (MTT); [4]) [%] | viability at 48 h, 100 µM (Cell viability (MTT); [4]) [%] | IR (%) inhibition rate of CD74 expression (CD74; 4 µM) [%] | IR (%) inhibition rate of CD74 expression (CD74; 20 µM) [%] | IC50 (CD74) [µM] | other results
1 | COc1ccc(-c2cc(=O)c3c(OC)c(OC)c(OC)c(OC)c3o2)cc1OC [Nobiletin] | markedly inhibit | > 100 | 96 ± 0.3 | 93 ± 0.5 | 58 ± 5 | 1.8 ± 2.9 | 54 ± 5.0 | 18.8 | IR (%) inhibition rate of CD74 expression (CD74; 20 µM, listed as nobiletin): 40–65%; Suppression of CD74 expression (in words) (CD74): significant activity
2 | O=S(=O)(O)O/N=C(/CCc1ccccc1)S[C@@H]1O[C@H](CO)[C@@H](O)[C@H](O)[C@H]1O [PEGLS, gluconasturtiin] | – | – | 99 ± 1.4 | 88 ± 1.7 | 90 ± 1.4 | −11 ± 4.4 | −25 ± 1.3 | > 100 | CC50 at 48 h (Cell viability (MTT); [4]): > 100 µM; IR (%) inhibition rate of CD74 expression (CD74; 100 µM): −13 ± 3.8%
3 | COc1ccc(-c2cc(=O)c3c(OC)c(OC)c(OC)c(OC)c3o2)cc1 [Tangeretin] | – | > 100 | 98 ± 2.7 | 100 ± 0.5 | 63 ± 3.1 | −3.3 ± 3.3 | 21 ± 3.1 | 39.5 | Suppression of CD74 expression (in words) (CD74): significant activity
4 | O=c1c(O)c(-c2ccc(O)c(O)c2)oc2cc(O)cc(O)c12 [Quercetin] | markedly inhibit | > 100 | 100 ± 3 | 100 ± 3 | 51 ± 0.5 | 3.7 ± 0.0 | 51 ± 4.7 | 19.8 | IR (%) inhibition rate of CD74 expression (CD74; 20 µM, listed as quercetin): 40–65%; N-methyl-N’-nitro-N-nitrosoguanidine-induced inflammation [2]: reduced
5 | O=C(O)c1cc(O)c(O)c(O)c1 [Gallic acid] | – | > 100 | 97 ± 0.2 | 73 ± 2.4 | 97 ± 2.1 | 15 ± 2.4 | 57 ± 3.7 | 96.4 | IR (%) inhibition rate of CD74 expression (CD74; 20 µM, listed as gallic acid): 40–65%; IR (%) inhibition rate of CD74 expression (CD74; 100 µM): 47 ± 8.3%
6 | O=c1c(-c2ccc(O)cc2)coc2cc(O)cc(O)c12 [Genistein] | – | > 100 | 100 ± 0.4 | 84 ± 1.5 | 55 ± 4.6 | 8.6 ± 7.8 | 49 ± 7.2 | 20.5 | NF-κB activation (NF-κB [3]): decreased; IR (%) inhibition rate of CD74 expression (CD74; 20 µM, listed as genistein): 40–65%
7 | O=c1cc(-c2ccc(O)c(O)c2)oc2cc(O)cc(O)c12 [Luteolin] | markedly inhibit | – | 99 ± 2.9 | 81 ± 4.7 | 61 ± 1.5 | 4.0 ± 5.1 | 55 ± 1.2 | 18.4 | CC50 at 48 h (in vitro): > 100 µM; IR (%) inhibition rate of CD74 expression (CD74; 20 µM, listed as luteolin): 40–65%
8 | CC(C)=CC(=O)CC(C)c1ccc(C)cc1 (stereo not shown) [ar-Turmerone] | – | > 100 | 97 ± 4.1 | 100 ± 3.2 | 57 ± 1.3 | 22 ± 0.5 | 39 ± 1.8 | 30.8 | –
9 | C[C@H]1[C@H](C)CC[C@]2(C(=O)O)CC[C@]3(C)C(=CC[C@@H]4[C@@]5(C)CC[C@H](O)C(C)(C)[C@@H]5CC[C@]43C)[C@H]12 [Ursolic acid] | – | – | 91 ± 1.6 | 38 ± 1.1 | 9.7 | 35 ± 6.1 | – | < 20 | CC50 at 48 h (in vitro): 35.4 µM
10 | S=C=NCCc1ccccc1 [PEITC, phenetyl isothiocyanate] | – | 61.3 | – | – | – | −17 ± 2.3 | – | < 20 | viability at 48 h, 4 µM (in vitro): 97 ± 4.8%; viability at 48 h, 20 µM (in vitro): 43 ± 1.8%; viability at 48 h, 100 µM (in vitro): 37 ± 2.2%
11 | C/C1=C\CC(C)(C)/C=C/C(=O)/C(C)=C/CC1 [Zerumbone] | markedly inhibit | – | 100 ± 0.4 | 77 ± 0.3 | 16 ± 1.1 | 6.6 ± 0.8 | 57 ± 0.2 | 17.7 | CC50 at 48 h (Cell viability (MTT); [4]): 60.5 µM; IR (%) inhibition rate of CD74 expression (CD74; 20 µM, listed as zerumbone): 40–65%
